From patent US20220054451A1, “2,3-DIHYDROBENZO[b]THIOPHENE DERIVATIVES AS HYPOXIA INDUCIBLE FACTOR-2(ALPHA) INHIBITORS” (NiKang Therapeutics, Inc., priority 2018, published 2022)

Molecular target: T1, HIF-2α (Homo sapiens, UniProt Q99814)
T1 construct: endogenous in cells; host or cells: 786-O cells
Test: VEGF ELISA assay: VEGF expression in 786-O cells
Assay type: cell-based
Settings: VEGF concentration in culture medium by ELISA, compounds from 10 uM down to 1 nM, treated twice, medium collected 24 hours after second treatment
Protocol: The ability of the disclosed compounds to inhibit HIF-2α was measured by determining VEGF expression in 786-O cells. About 7500 786-O cells were seeded into each well of a 96-well, white, clear bottom plate (07-200-566, Fisher Scientific) with 200 ul growth medium. Four hours later, compounds were dispensed into wells by Tecan D300e digital dispenser with starting concentration of 10 uM and ½ log of dilution down to 1 nM as final concentration. Each concentration of treatment was performed in duplicate. About 20 hours later, medium was removed and fresh medium was added, followed by compounds treatment as described above. 24 hours later, cell culture medium was collected to determine VEGF concentration using an ELISA kit (R&D systems, cat #DVE00) following the manufacturer's instruction.
The IC50 is calculated by GraphPad Prism using the dose-response-inhibition (four parameter) equation. The plate with cells was then subjected to CellTiter-Glo luminescence cell viability assay (Promega) to determine the effect of these compounds on cell numbers after the above treatment.

T1 sequence (Q99814 whole entry): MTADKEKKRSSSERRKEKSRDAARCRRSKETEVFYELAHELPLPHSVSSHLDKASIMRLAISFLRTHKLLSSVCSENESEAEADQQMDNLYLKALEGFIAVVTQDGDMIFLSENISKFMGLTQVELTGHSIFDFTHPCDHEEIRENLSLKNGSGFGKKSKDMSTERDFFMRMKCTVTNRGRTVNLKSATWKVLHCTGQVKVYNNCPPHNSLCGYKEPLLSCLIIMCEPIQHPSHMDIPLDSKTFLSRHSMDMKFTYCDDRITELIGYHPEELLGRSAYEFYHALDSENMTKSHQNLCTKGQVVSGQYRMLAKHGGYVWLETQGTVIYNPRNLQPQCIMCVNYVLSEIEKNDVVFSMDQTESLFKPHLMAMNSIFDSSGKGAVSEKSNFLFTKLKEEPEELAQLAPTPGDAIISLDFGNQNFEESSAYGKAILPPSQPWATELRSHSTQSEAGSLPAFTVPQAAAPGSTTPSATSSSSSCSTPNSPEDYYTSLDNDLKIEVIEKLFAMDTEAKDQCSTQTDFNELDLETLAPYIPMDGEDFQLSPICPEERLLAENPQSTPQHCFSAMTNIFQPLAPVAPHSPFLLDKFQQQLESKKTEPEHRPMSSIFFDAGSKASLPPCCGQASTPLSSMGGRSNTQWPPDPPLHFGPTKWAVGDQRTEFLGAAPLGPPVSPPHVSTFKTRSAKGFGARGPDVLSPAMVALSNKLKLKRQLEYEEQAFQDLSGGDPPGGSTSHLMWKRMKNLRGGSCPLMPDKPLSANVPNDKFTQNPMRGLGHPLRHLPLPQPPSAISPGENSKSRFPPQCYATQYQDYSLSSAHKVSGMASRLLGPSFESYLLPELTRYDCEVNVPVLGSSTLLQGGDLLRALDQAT

N#Cc1cc(Cl)cc(Oc2ccc3c(c2C(F)F)[S@@+]([O-])C(F)(F)[C@H]3F)c1 (single isomer, unassigned) [Compound 6d]
EC50: 280 nM

[O-][S@@+]1c2c(ccc(Oc3cc(F)cc(F)c3)c2C(F)F)[C@H](F)C1(F)F (single isomer, unassigned) [Compound 9a]
EC50: 970 nM

[O-][S@+]1c2c(ccc(Oc3cc(F)cc(F)c3)c2C(F)F)[C@@H](F)C1(F)F (single isomer, unassigned) [Compound 9b]
EC50: 1200 nM

[O-][S@+]1c2c(ccc(Oc3cc(F)cc(F)c3)c2C(F)F)[C@H](F)C1(F)F (single isomer, unassigned) [Compound 9c]
EC50: 74 nM

[O-][S@@+]1c2c(ccc(Oc3cc(F)cc(F)c3)c2C(F)F)[C@@H](F)C1(F)F (single isomer, unassigned) [Compound 9d]
EC50: 3270 nM

[O-][S@@+]1c2c(ccc(Oc3cc(F)cc(Cl)c3)c2C(F)F)[C@H](F)C1(F)F (single isomer, unassigned) [Compound 12a]
EC50: 860 nM

[O-][S@+]1c2c(ccc(Oc3cc(F)cc(Cl)c3)c2C(F)F)[C@@H](F)C1(F)F (single isomer, unassigned) [Compound 12b]
EC50: 880 nM

[O-][S@+]1c2c(ccc(Oc3cc(F)cc(Cl)c3)c2C(F)F)[C@H](F)C1(F)F (single isomer, unassigned) [Compound 12c]
EC50: 45 nM

[O-][S@@+]1c2c(ccc(Oc3cc(F)cc(Cl)c3)c2C(F)F)[C@@H](F)C1(F)F (single isomer, unassigned) [Compound 12d]
EC50: 1600 nM

N#Cc1cc(F)cc(Oc2ccc3c(c2C(F)F)[S+]([O-])C(F)(F)C3(F)F)c1 (single isomer, unassigned) [Compound 13a]
EC50: 37 nM

N#Cc1cc(F)cc(Oc2ccc3c(c2C(F)F)[S+]([O-])C(F)(F)C3(F)F)c1 (single isomer, unassigned) [Compound 13b]
EC50: 190 nM

N#Cc1cc(F)cc(Oc2ccc3c(c2C(F)F)[S+]([O-])C(F)(F)C3=O)c1 (stereo not shown) [Compound 1, 3-((7-(difluoromethyl)-2,2-difluoro-1-oxido-3-oxo-2,3-dihydrobenzo[b]thiophen-6-yl)oxy)-5-fluorobenzonitrile]
EC50: 720 nM

[O-][S+]1c2c(ccc(Oc3cc(F)cc(F)c3)c2C(F)F)C(F)(F)C1(F)F (stereo not shown) [Compound 15, 7-(difluoromethyl)-6-(3,5-difluorophenoxy)-2,2,3,3-tetrafluoro-2,3-dihydrobenzo[b]-thiophene 1-oxide]
EC50: 130 nM

N#Cc1cncc(Oc2ccc3c(c2C(F)F)[S+]([O-])C(F)(F)C3(F)F)c1 (stereo not shown) [Compound 16, 5-((7-(difluoromethyl)-2,2,3,3-tetrafluoro-1-oxido-2,3-dihydrobenzo[b]thiophen-6-yl)oxy)nicotinonitrile]
EC50: 2390 nM

[O-][S+]1c2c(ccc(Oc3cncc(F)c3)c2C(F)F)C(F)(F)C1(F)F (stereo not shown) [Compound 17, 7-(difluoromethyl)-2,2,3,3-tetrafluoro-6-((5-fluoropyridin-3-yl)oxy)-2,3-dihydrobenzo-[b]thiophene 1-oxide]
EC50: 2130 nM

[O-][S+]1c2c(ccc(Oc3cncc(Cl)c3)c2C(F)F)C(F)(F)C1(F)F (stereo not shown) [Compound 18, 6-((5-chloropyridin-3-yl)oxy)-7-(difluoromethyl)-2,2,3,3-tetrafluoro-2,3-dihydrobenzo-[b]thiophene 1-oxide]
EC50: 1800 nM

[O-][S+]1c2c(ccc(OC3CC(F)(F)C3)c2C(F)F)C(F)(F)C1(F)F (stereo not shown) [Compound 19, 6-(3,3-difluorocyclobutoxy)-7-(difluoromethyl)-2,2,3,3-tetrafluoro-2,3-dihydrobenzo[b]-thiophene 1-oxide]
EC50: 2680 nM

N#Cc1cc(F)cc(Oc2ccc3c(c2C(F)F)S(=O)(=O)C(F)(F)C3(F)F)c1 [Compound 20, 3-((7-(difluoromethyl)-2,2,3,3-tetrafluoro-1,1-dioxido-2,3-dihydrobenzo[b]thiophen-6-yl)oxy)-5-fluorobenzonitrile]
EC50: 27 nM

N#Cc1cc(F)cc(Oc2ccc3c(c2Cl)[S+]([O-])C(F)(F)C3(F)F)c1 (stereo not shown) [Compound 28, 3-((7-chloro-2,2,3,3-tetrafluoro-1-oxido-2,3-dihydrobenzo[b]thiophen-6-yl)oxy)-5-fluorobenzonitrile]
EC50: 240 nM

N#Cc1cc(F)cc(Oc2ccc3c(c2Cl)S(=O)(=O)C(F)(F)C3(F)F)c1 [Compound 29, 3-((7-chloro-2,2,3,3-tetrafluoro-1,1-dioxido-2,3-dihydrobenzo [b]thiophen-6-yl)oxy)-5-fluorobenzonitrile]
EC50: 190 nM

N#Cc1cc(F)cc(Oc2ccc3c(c2Br)[S+]([O-])C(F)(F)C3(F)F)c1 (stereo not shown) [Compound 30, 3-((7-bromo-2,2,3,3-tetrafluoro-1-oxido-2,3-dihydrobenzo[b]thiophen-6-yl)oxy)-5-fluorobenzonitrile]
EC50: 390 nM

N#Cc1cc(F)cc(Oc2ccc3c(c2C#N)[S+]([O-])C(F)(F)C3(F)F)c1 (stereo not shown) [Compound 31, 6-(3-cyano-5-fluorophenoxy)-2,2,3,3-tetrafluoro-2,3-dihydrobenzo [b]thiophene-7-carbonitrile 1-oxide]
EC50: 190 nM

a mixture of 3-(((1S,3R)-7- (difluoromethyl)-2,2,3-trifluoro-1- oxido-2,3-dihydrobenzo- [b]thiophen-6-yl)oxy)-5- fluorobenzonitrile and 3-(((1R,3S)- 7-(difluoromethyl)-2,2,3- trifluoro-1-oxido-2,3-dihydrobenzo [b]thiophen-6-yl)oxy)-5- fluorobenzonitrile [Compound 3a]
EC50: 3500 nM

a mixture of 3-(((1S,3S)-7- (difluoromethyl)-2,2,3-trifluoro-1- oxido-2,3-dihydrobenzo- [b]thiophen-6-yl)oxy)-5- fluorobenzonitrile and 3-(((1R,3R)- 7-(difluoromethyl)-2,2,3- trifluoro-1-oxido-2,3-dihydrobenzo [b]thiophen-6-yl)oxy)-5- fluorobenzonitrile [Compound 3b]
EC50: 160 nM

a mixture of 3-fluoro-5-(((1R,3R)- 2,2,3-trifluoro-1-oxido-7- (trifluoromethyl)-2,3- dihydrobenzo[b]thiophen-4-yl)oxy) benzonitrile and 3-fluoro-5- (((1S,3S)-2,2,3-trifluoro-1- oxido-7-(trifluoromethyl)-2,3- dihydrobenzo[b]thiophen-4-yl) oxy)benzonitrile [Compound 27a]
EC50: 9400 nM

a mixture of 3-fluoro-5-(((1R,3R)- 2,2,3-trifluoro-7-(methylsulfonyl)- 1-oxido-2,3- dihydrobenzo[b]thiophen-4-yl)oxy) benzonitrile and 3-fluoro-5- (((1S,3S)-2,2,3-trifluoro-7- (methylsulfonyl)-1-oxido-2,3- dihydrobenzo[b]thiophen-4-yl) oxy)benzonitrile [Compound 24b]
EC50: 18500 nM

a mixture of 3-fluoro-5-(((1S,3R)- 2,2,3-trifluoro-1-oxido-7- (trifluoromethyl)-2,3- dihydrobenzo[b]thiophen-4-yl)oxy) benzonitrile and 3-fluoro-5- (((1R,3S)-2,2,3-trifluoro-1- oxido-7-(trifluoromethyl)-2,3- dihydrobenzo[b]thiophen-4-yl) oxy)benzonitrile [Compound 27b]
EC50: 670 nM

a mixture of 3-fluoro-5-(((1S,3R)- 2,2,3-trifluoro-7-(methylsulfonyl)- 1-oxido-2,3- dihydrobenzo[b]thiophen-4-yl)oxy) benzonitrile and 3-fluoro-5- (((1R,3S)-2,2,3-trifluoro-7- (methylsulfonyl)-1-oxido-2,3- dihydrobenzo[b]thiophen-4-yl) oxy)benzonitrile [Compound 24a]
EC50: 8900 nM
